Here are results for 34 compounds from patent publication US12441703B2, “Carboxamides as modulators of sodium channels” (VERTEX PHARMACEUTICALS INCORPORATED, priority 2019, dated 2025).

pIC50: −log10 of the molar value.

human NaV 1.8, sequence (Q9Y5Y9 whole entry, looked up, the tested form may be a part): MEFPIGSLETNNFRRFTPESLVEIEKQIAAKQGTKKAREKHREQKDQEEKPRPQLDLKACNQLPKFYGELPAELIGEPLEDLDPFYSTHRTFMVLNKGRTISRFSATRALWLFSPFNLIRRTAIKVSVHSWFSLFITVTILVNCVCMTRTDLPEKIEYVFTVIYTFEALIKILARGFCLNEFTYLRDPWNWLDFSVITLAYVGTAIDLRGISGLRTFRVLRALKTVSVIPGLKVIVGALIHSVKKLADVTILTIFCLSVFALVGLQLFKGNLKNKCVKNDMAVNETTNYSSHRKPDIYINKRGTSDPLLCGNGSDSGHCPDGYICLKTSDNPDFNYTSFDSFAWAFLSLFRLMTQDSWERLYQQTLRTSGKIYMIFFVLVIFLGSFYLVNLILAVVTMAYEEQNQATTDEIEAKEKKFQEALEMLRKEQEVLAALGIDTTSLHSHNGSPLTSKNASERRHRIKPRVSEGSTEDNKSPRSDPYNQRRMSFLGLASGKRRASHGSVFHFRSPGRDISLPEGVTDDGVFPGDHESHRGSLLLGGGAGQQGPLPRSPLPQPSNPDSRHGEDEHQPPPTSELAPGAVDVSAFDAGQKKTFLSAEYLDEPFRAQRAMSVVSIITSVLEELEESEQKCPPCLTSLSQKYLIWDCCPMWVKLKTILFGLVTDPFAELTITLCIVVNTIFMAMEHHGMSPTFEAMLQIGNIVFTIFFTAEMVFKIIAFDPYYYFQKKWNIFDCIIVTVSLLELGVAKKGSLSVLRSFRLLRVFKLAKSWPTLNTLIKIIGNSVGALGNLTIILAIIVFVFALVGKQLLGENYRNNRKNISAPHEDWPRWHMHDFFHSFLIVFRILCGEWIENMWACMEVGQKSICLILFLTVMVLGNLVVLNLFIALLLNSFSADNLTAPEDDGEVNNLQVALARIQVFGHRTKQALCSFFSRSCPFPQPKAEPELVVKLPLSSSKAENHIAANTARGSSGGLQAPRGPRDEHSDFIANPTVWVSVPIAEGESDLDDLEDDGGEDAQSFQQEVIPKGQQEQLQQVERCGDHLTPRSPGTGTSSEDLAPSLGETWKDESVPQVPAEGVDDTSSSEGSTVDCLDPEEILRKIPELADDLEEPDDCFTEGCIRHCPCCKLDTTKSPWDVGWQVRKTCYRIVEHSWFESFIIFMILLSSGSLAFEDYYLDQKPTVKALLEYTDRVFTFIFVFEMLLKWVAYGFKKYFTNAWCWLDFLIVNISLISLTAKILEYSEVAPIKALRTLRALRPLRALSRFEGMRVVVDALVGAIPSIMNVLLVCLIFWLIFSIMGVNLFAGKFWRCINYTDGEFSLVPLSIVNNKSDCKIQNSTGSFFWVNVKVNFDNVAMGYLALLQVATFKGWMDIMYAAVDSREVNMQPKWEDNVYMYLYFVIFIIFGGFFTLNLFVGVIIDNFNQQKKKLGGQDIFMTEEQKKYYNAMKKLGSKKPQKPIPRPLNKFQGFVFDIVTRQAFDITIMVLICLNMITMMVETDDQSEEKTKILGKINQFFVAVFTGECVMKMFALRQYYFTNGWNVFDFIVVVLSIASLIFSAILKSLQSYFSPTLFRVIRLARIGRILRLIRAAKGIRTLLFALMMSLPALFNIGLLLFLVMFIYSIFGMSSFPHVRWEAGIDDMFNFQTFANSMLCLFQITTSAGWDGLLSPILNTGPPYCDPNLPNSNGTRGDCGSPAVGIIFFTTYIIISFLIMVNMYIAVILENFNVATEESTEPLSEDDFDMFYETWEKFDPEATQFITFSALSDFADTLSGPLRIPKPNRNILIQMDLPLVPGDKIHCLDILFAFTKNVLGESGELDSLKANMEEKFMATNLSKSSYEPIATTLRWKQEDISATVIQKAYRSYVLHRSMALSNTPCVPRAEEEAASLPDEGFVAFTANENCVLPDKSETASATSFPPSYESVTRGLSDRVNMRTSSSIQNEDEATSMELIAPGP

One test has as its target human NaV 1.8 (Homo sapiens, UniProt Q9Y5Y9). The experiment in a line: E-VIPR assay for detecting and measuring NaV inhibition properties. It is filed as cell-based. Conditions: E-VIPR assay conducted in the presence of human serum; HEK cells expressing truncated human NaV 1.8. An outline of the steps: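 Membrane-potential (coumarin/oxonol) readout after 10 s of 10 Hz biphasic electrical stimulation on E-VIPR. Compounds: 11-point 3-fold dilutions, […], 0.625% DMSO, 30 min at room temperature, human serum optional. Cells: HEK expressing truncated human NaV1.8 co-transduced with KIR2.1.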
Take `COc1cc(OC(F)(F)F)ccc1Oc1ccc(-c2ccccc2)c(F)c1C(=O)Nc1ccnc(C(N)=O)c1` [Compound 177, 4-[[2-fluoro-6-[2-methoxy-4-(trifluoromethoxy)phenoxy]-3-phenyl-benzoyl]amino]pyridine-2-carboxamide]: the pIC50 is 7.70.

The test is the same for the next values; noted with them: E-VIPR assay conducted in the presence of human serum; HEK cells expressing truncated human NaV 1.8; read-out: IC50.
Regarding `NC(=O)c1cc(NC(=O)c2ccc(C(F)(F)F)cc2Oc2ccc(F)c(F)c2)ccn1` [Compound 163, 4-[[2-(3,4-difluorophenoxy)-4-(trifluoromethyl)benzoyl]amino]pyridine-2-carboxamide], the pIC50 was less than 5.52. For the compound `CC(C)Oc1ccc(Oc2cc(C(F)(F)F)ccc2C(=O)Nc2ccnc(C(N)=O)c2)cc1` [Compound 164, 4-[[2-(4-isopropoxyphenoxy)-4-(trifluoromethyl)benzoyl]amino]pyridine-2-carboxamide], the pIC50 is less than 5.52. Same read-out and setting: the result for `NC(=O)c1cc(NC(=O)c2ccc(C(F)(F)F)cc2Oc2ccc(F)c3c2OCC3)ccn1` [Compound 165, 4-[[2-[(4-fluoro-2,3-dihydrobenzofuran-7-yl)oxy]-4-(trifluoromethyl)benzoyl]amino]pyridine-2-carboxamide] reads less than 5.52. The same measure, in the same setting: the result for `Cc1cc(Oc2cc(C(F)(F)F)ccc2C(=O)Nc2ccnc(C(N)=O)c2)ccc1F` [Compound 166, 4-[[2-(4-fluoro-3-methyl-phenoxy)-4-(trifluoromethyl)benzoyl]amino]pyridine-2-carboxamide] reads less than 5.52. On the same count and under the same terms, the result for `COc1cc(Oc2cc(C(F)(F)F)ccc2C(=O)Nc2ccnc(C(N)=O)c2)ccc1F` [Compound 167, 4-[[2-(4-fluoro-3-methoxy-phenoxy)-4-(trifluoromethyl)benzoyl]amino]pyridine-2-carboxamide] reads less than 5.52; that for `COc1cc(OC(F)(F)F)ccc1Oc1cc(-c2ccc(F)cc2)cc(F)c1C(=O)Nc1ccc(C(N)=O)nc1` [Compound 170, 5-[[2-fluoro-4-(4-fluorophenyl)-6-[2-methoxy-4-(trifluoromethoxy)phenoxy]benzoyl]amino]pyridine-2-carboxamide], 6.64; that for `COc1cc(OC(F)(F)F)ccc1Oc1cc(-c2ccc(Cl)cc2)cc(F)c1C(=O)Nc1ccnc(C(N)=O)c1` [Compound 171, 4-[[4-(4-chlorophenyl)-2-fluoro-6-[2-methoxy-4-(trifluoromethoxy)phenoxy]benzoyl]amino]pyridine-2-carboxamide], 8.05. Turning to `COc1cc(OC(F)(F)F)ccc1Oc1cc(-c2ccc(C(C)(C)C)cc2)cc(F)c1C(=O)Nc1ccnc(C(N)=O)c1` [Compound 172], the pIC50 is 7.30. Turning to `[2H]C([2H])([2H])Oc1cc(OC(F)(F)F)ccc1Oc1cc(C(F)(F)F)cnc1C(=O)Nc1ccnc(C(N)=O)c1` [Compound 173, N-(2-carbamoyl-4-pyridyl)-3-[2-(trideuteriomethoxy)-4-(trifluoromethoxy)phenoxy]-5-(trifluoromethyl)pyridine-2-carboxamide], the pIC50 was 5.89.

On to `[2H]C([2H])([2H])Oc1cc(OC(F)(F)F)ccc1Oc1cc(C(F)(F)F)cnc1C(=O)Nc1ccc(C(N)=O)nc1` [Compound 174, N-(6-carbamoyl-3-pyridyl)-3-[2-(trideuteriomethoxy)-4-(trifluoromethoxy)phenoxy]-5-(trifluoromethyl)pyridine-2-carboxamide], for which the pIC50 is less than 5.52. The same measure, in the same setting: the result for `NC(=O)c1ccc(NC(=O)c2c(Oc3ccc(F)cc3Cl)ccc(C(F)(F)F)c2F)cn1` [Compound 176, 5-[[6-(2-chloro-4-fluoro-phenoxy)-2-fluoro-3-(trifluoromethyl)benzoyl]amino]pyridine-2-carboxamide] reads 6.31; that for `CCc1cc(C(F)(F)F)cc(Oc2ccc(OC(F)(F)F)cc2OC)c1C(=O)Nc1ccnc(C(N)=O)c1` [Compound 178, 4-[[2-ethyl-6-[2-methoxy-4-(trifluoromethoxy)phenoxy]-4-(trifluoromethyl)benzoyl]amino]pyridine-2-carboxamide], 7.57; that for `COc1c(Oc2ccc(C(F)(F)F)c(C)c2C(=O)Nc2ccc(C(N)=O)nc2)ccc(F)c1F` [Compound 179, 5-[[6-(3,4-difluoro-2-methoxy-phenoxy)-2-methyl-3-(trifluoromethyl)benzoyl]amino]pyridine-2-carboxamide], 5.70. `COc1c(Oc2ccc(C(F)(F)F)c(C)c2C(=O)Nc2cc(C(N)=O)ncc2C)ccc(F)c1F` [Compound 180, 4-[[6-(3,4-difluoro-2-methoxy-phenoxy)-2-methyl-3-(trifluoromethyl)benzoyl]amino]-5-methyl-pyridine-2-carboxamide]: the pIC50 was 6.29.

Take `COc1cc(OC(F)(F)F)ccc1Oc1ccc(C2CC2)c(C)c1C(=O)Nc1ccnc(C(N)=O)c1` [Compound 181, 4-[[3-cyclopropyl-6-[2-methoxy-4-(trifluoromethoxy)phenoxy]-2-methyl-benzoyl]amino]pyridine-2-carboxamide]: the pIC50 was 7.92. Consider `COc1cc(OC(F)(F)F)ccc1Oc1ccc(C2CC2)c(C)c1C(=O)Nc1ccc(C(N)=O)nc1` [Compound 182], for which the pIC50 is 6.54. For the compound `CCc1c(C(F)(F)F)ccc(Oc2ccc(OC(F)(F)F)cc2OC)c1C(=O)Nc1ccnc(C(N)=O)c1` [Compound 183, 4-[[2-ethyl-6-[2-methoxy-4-(trifluoromethoxy)phenoxy]-3-(trifluoromethyl)benzoyl]amino]pyridine-2-carboxamide], the pIC50 was 7.85. For the compound `CCc1c(C(F)(F)F)ccc(Oc2ccc(OC(F)(F)F)cc2OC)c1C(=O)Nc1ccc(C(N)=O)nc1` [Compound 184], the pIC50 is 6.85. Still for that read-out and setting: the result for `COc1cc(OC(F)(F)F)ccc1Oc1ccc(CC(C)C)c(C)c1C(=O)Nc1ccnc(C(N)=O)c1` [Compound 185, 4-[[3-isobutyl-6-[2-methoxy-4-(trifluoromethoxy)phenoxy]-2-methyl-benzoyl]amino]pyridine-2-carboxamide] reads 7.96; that for `COc1cc(OC(F)(F)F)ccc1Oc1cc(C(F)(F)F)cc(C)c1C(=O)Nc1cc(C(N)=O)ncc1C` [Compound 186, 4-[[2-[2-methoxy-4-(trifluoromethoxy)phenoxy]-6-methyl-4-(trifluoromethyl)benzoyl]amino]-5-methyl-pyridine-2-carboxamide], 6.96; that for `COc1cc(OC(F)(F)F)ccc1Oc1cc(C(F)(F)F)cc(C)c1C(=O)Nc1ccc(C(N)=O)nc1` [Compound 187, 5-[[2-[2-methoxy-4-(trifluoromethoxy)phenoxy]-6-methyl-4-(trifluoromethyl)benzoyl]amino]pyridine-2-carboxamide], 6.31. The same measure, in the same setting: to `COc1cc(OC(F)(F)F)ccc1Oc1cc(C(F)(F)F)cc(C)c1C(=O)Nc1ccnc(C(N)=O)c1` [Compound 188, 4-[[2-[2-methoxy-4-(trifluoromethoxy)phenoxy]-6-methyl-4-(trifluoromethyl)benzoyl]amino]pyridine-2-carboxamide] belongs 7.62; to `COc1c(Oc2cc(C(F)(F)F)cc(C)c2C(=O)Nc2ccnc(C(N)=O)c2)ccc(F)c1F` [Compound 189, 4-[[2-(3,4-difluoro-2-methoxy-phenoxy)-6-methyl-4-(trifluoromethyl)benzoyl]amino]pyridine-2-carboxamide], 6.77; to `Cc1c(C(F)(F)F)ccc(Oc2ccc(F)cc2Cl)c1C(=O)Nc1ccc(C(N)=O)nc1` [Compound 190, 5-[[6-(2-chloro-4-fluoro-phenoxy)-2-methyl-3-(trifluoromethyl)benzoyl]amino]pyridine-2-carboxamide], 5.82.

For the compound `COc1cc(OC(F)(F)F)ccc1Oc1ccc(C(F)(F)F)c(Cl)c1C(=O)Nc1ccnc(C(N)=O)c1` [Compound 191, 4-[[2-chloro-6-[2-methoxy-4-(trifluoromethoxy)phenoxy]-3-(trifluoromethyl)benzoyl]amino]pyridine-2-carboxamide], the pIC50 was 8.70. Take `NC(=O)c1cc(NC(=O)c2c(Oc3ccc(OC(F)(F)F)cc3Cl)ccc(C(F)(F)F)c2Cl)ccn1` [Compound 192]: the pIC50 is 8.40. Still for that read-out and setting: the result for `COc1c(Oc2ccc(C(F)(F)F)c(Cl)c2C(=O)Nc2ccnc(C(N)=O)c2)ccc(F)c1F` [Compound 193] reads 8.22. For the compound `COc1cc(OC(F)(F)F)ccc1Oc1ccc(C(F)(F)F)c(Br)c1C(=O)Nc1ccnc(C(N)=O)c1` [Compound 194, 4-[[2-bromo-6-[2-methoxy-4-(trifluoromethoxy)phenoxy]-3-(trifluoromethyl)benzoyl]amino]pyridine-2-carboxamide], the pIC50 is 8.70. Same read-out and setting: to `COc1c(Oc2ccc(C(F)(F)F)c(Br)c2C(=O)Nc2ccnc(C(N)=O)c2)ccc(OC(F)(F)F)c1F` [Compound 195] belongs 8.30; to `COc1c(Oc2ccc(C3CC3)c(C)c2C(=O)Nc2ccnc(C(N)=O)c2)ccc(OC(F)(F)F)c1F` [Compound 196, 4-[[3-cyclopropyl-6-[3-fluoro-2-methoxy-4-(trifluoromethoxy)phenoxy]-2-methyl-benzoyl]amino]pyridine-2-carboxamide], 8.05. For `COc1c(Oc2ccc(C3CC3)c(C)c2C(=O)Nc2ccc(C(N)=O)nc2)ccc(OC(F)(F)F)c1F` [Compound 197, 5-[[3-cyclopropyl-6-[3-fluoro-2-methoxy-4-(trifluoromethoxy)phenoxy]-2-methyl-benzoyl]amino]pyridine-2-carboxamide], the pIC50 was 6.92.

On to `COc1cc(OC(F)(F)F)ccc1Oc1ccc(C2CC2)c(C)c1C(=O)Nc1cc(C(N)=O)ncc1C` [Compound 198, 4-[[3-cyclopropyl-6-[2-methoxy-4-(trifluoromethoxy)phenoxy]-2-methyl-benzoyl]amino]-5-methyl-pyridine-2-carboxamide], for which the pIC50 was 7.82. On to `Cc1c(C2CC2)ccc(Oc2ccc(OC(F)(F)F)cc2Cl)c1C(=O)Nc1ccnc(C(N)=O)c1` [Compound 199, 4-[[6-[2-chloro-4-(trifluoromethoxy)phenoxy]-3-cyclopropyl-2-methyl-benzoyl]amino]pyridine-2-carboxamide], for which the pIC50 was 7.68.
